The values below come from patent publication US12344614B2, “Benzodiazepine derivatives as GABA a GAMMA1 PAM” (Hoffmann-La Roche Inc., priority 2021, dated 2025).

One may read the Ki as the dissociation constant of the complex between target and ligand, obtained from inhibition or displacement.

The target in test [1] is human GABAA α2β2γ1 receptor (Homo sapiens (Human), UniProt P47869+Q8N1C3). The test can be described thus: Radioligand binding assay, competition for [3H]RO7239181, membranes from HEK293F cells.
The target in a further test is h-GABA-A α2β2γ1 receptor (Homo sapiens (Human), UniProt P47869+Q8N1C3). The test can be described thus: Two-electrode voltage clamp electrophysiology in Xenopus oocytes expressing GABAA receptors. The class given is cell-based. The note with it: for Efficacy (GABA) %: % modulation of GABA EC20 = 100*(Fold increase−1), compound at 30-fold Ki α2β2γ1; for Fold increase h-GABA-A α2β2γ1 oocyte @ 30-fold Ki: Xenopus oocytes, GABA EC20, test compound at approx. 30-fold its Ki α2β2γ1. Background: Two-electrode voltage clamp holds a large cell at a set potential and records current.

The target of test [2] is human GABAA α1β3γ2 receptor (Homo sapiens (Human), UniProt P14867+P18507). The test can be described thus: Radioligand binding assay, competition for [3H]Flumazenil, HEK293F cells. The note with it: for LogSel: Log[Ki α1β3γ2 (nM)/Ki α2β2γ1 (nM)]; for γ2/γ1 Selectivity Ratio: Ki α1β3γ2 (nM)/Ki α2β2γ1 (nM).
[3] abbreviates: read-out: Ki h-GABAA α2β2γ1, [3H]RO7239181 20-30 nM, HEK293F membranes, 1 hour at 4° C., mean of two determinations.

Where two headings read alike, the source gives them in different places.

Take `CN1C(=O)CN=C(c2cc(O)ccc2F)c2c1ccc(Cl)c2Cl` [Example 1, 6,7-dichloro-5-(2-fluoro-5-hydroxy-phenyl)-1-methyl-3H-1,4-benzodiazepin-2-one]: the inhibition constant (Ki) in test [1] was 2.27 nM; in test [1] (setting [3]), 2.27 nM; in test [2], 28.7 nM; in test [2] (read-out: Ki h-GABAA α1β3γ2, [3H]Flumazenil 1 nM, HEK293F membranes, 1 hour at 4° C., mean of two determinations) it was 28.7 nM. Also, the “Efficacy (GABA) %” value on h-GABA-A α2β2γ1 receptor is given as 90%. On h-GABA-A α2β2γ1 receptor, the “Fold increase h-GABA-A α2β2γ1 oocyte @ 30-fold Ki” value was 1.90. Besides, in test [2], the LogSel is 1.1.
Consider `Cc1nc2n(n1)-c1ccc(C(F)(F)F)c(Cl)c1C(c1nc(O)ccc1F)=N[C@H]2C` [Example 25, 6-[(4S)-7-chloro-2,4-dimethyl-8-(trifluoromethyl)-4H-[1,2,4]triazolo[1,5-a][1,4]benzodiazepin-6-yl]-5-fluoro-pyridin-2-ol], for which the Ki in test [1] was 10.9 nM. In test [1] (setting [3]), the Ki amounted to 10.9 nM. Also, at h-GABA-A α2β2γ1 receptor, the “Efficacy (GABA) %” value amounted to 45% and the “Fold increase h-GABA-A α2β2γ1 oocyte @ 30-fold Ki” value is given as 1.45. Further, in test [2], the Ki was 10600 nM, the “γ2/γ1 Selectivity Ratio” value was 977.2 and the LogSel is recorded as 2.99.
For `COC1CN(C(=O)c2nc3n(n2)-c2ccc(C(F)(F)F)c(Cl)c2C(c2cc(O)ccc2F)=NC3)C1` [Example 16, [7-chloro-6-(2-fluoro-5-hydroxy-phenyl)-8-(trifluoromethyl)-4H-[1,2,4]triazolo[1,5-a][1,4]benzodiazepin-2-yl]-(3-methoxyazetidin-1-yl)methanone], in test [1], the affinity, expressed as Ki, was 3.6 nM. The inhibition constant (Ki) in test [1] (setting [3]) is 3.6 nM. At h-GABA-A α2β2γ1 receptor, the “Efficacy (GABA) %” value was determined as 48% and the “Fold increase h-GABA-A α2β2γ1 oocyte @ 30-fold Ki” value is on record as 1.48. In addition, in test [2], the Ki was 164 nM, the “γ2/γ1 Selectivity Ratio” value is 45.6 and the LogSel was found to be 1.66.
Molecule `CN1C(=O)CN=C(c2c(F)ccc(O)c2F)c2c1ccc(Cl)c2Cl` [Example 12, 6,7-dichloro-5-(2,6-difluoro-3-hydroxy-phenyl)-1-methyl-3H-1,4-benzodiazepin-2-one] had a Ki in test [1] of 2.12 nM. Further, the Ki in test [1] (setting [3]) turned out to be 2.12 nM. At h-GABA-A α2β2γ1 receptor, the “Efficacy (GABA) %” value is recorded as 99% and the “Fold increase h-GABA-A α2β2γ1 oocyte @ 30-fold Ki” value is 1.99. In test [2], affinity was put at a Ki of 371 nM, the “γ2/γ1 Selectivity Ratio” value is 175.4 and the LogSel was 2.24.
`Cc1nnc2n1-c1ccc(Cl)c(Cl)c1C(c1cc(O)ccc1F)=N[C@H]2C` [Example 4, 4-fluoro-3-[(4S)-7,8-dichloro-1,4-dimethyl-4H-[1,2,4]triazolo[4,3-a][1,4]benzodiazepin-6-yl]phenol] displayed an inhibition constant (Ki) in test [1] of 1.99 nM. Further, the Ki in test [1] (setting [3]) turned out to be 1.99 nM. At h-GABA-A α2β2γ1 receptor, the “Efficacy (GABA) %” value is 33% and the “Fold increase h-GABA-A α2β2γ1 oocyte @ 30-fold Ki” value is given as 1.33. In test [2], the inhibitory constant (Ki) turned out to be 81.7 nM, the “γ2/γ1 Selectivity Ratio” value is on record as 41.1 and the LogSel is reported as 1.61.
As to `Cc1nnc2n1-c1ccc(C(F)(F)F)c(Cl)c1C(c1nc(O)ccc1F)=N[C@H]2C` [Example 20, 6-[(4S)-7-chloro-1,4-dimethyl-8-(trifluoromethyl)-4H-[1,2,4]triazolo[4,3-a][1,4]benzodiazepin-6-yl]-5-fluoro-pyridin-2-ol], the affinity in test [1] corresponds to a Ki of 40.1 nM. Also, the Ki in test [1] (setting [3]) stood at 40.1 nM. On h-GABA-A α2β2γ1 receptor, the “Efficacy (GABA) %” value is listed as 120% and the “Fold increase h-GABA-A α2β2γ1 oocyte @ 30-fold Ki” value was 2.20. Further, in test [2], the affinity corresponds to a Ki of 11200 nM, the “γ2/γ1 Selectivity Ratio” value turned out to be 279.6 and the LogSel is 2.45.
For the molecule `CN1C(=O)CN=C(c2cc(O)ccc2F)c2c1ccc(C(F)(F)F)c2Cl` [Example 8, 6-chloro-5-(2-fluoro-5-hydroxy-phenyl)-1-methyl-7-(trifluoromethyl)-3H-1,4-benzodiazepin-2-one], the Ki in test [1] is 2.35 nM. In test [1] (setting [3]), the inhibition constant Ki is 2.35 nM. Besides, on h-GABA-A α2β2γ1 receptor, the “Efficacy (GABA) %” value came out at 75% and the “Fold increase h-GABA-A α2β2γ1 oocyte @ 30-fold Ki” value amounted to 1.75. In test [2], the Ki worked out at 80.9 nM, the “γ2/γ1 Selectivity Ratio” value is listed as 34.4 and the LogSel is reported as 1.54.
In the case of `C[C@@H]1N=C(c2nc(O)ccc2F)c2c(ccc(C(F)(F)F)c2Cl)-n2c1nc1c2CCC1` [Example 24, 6-[(10S)-6-chloro-10-methyl-5-(trifluoromethyl)-1,9,12-triazatetracyclo[9.6.0.02,7.013,17]heptadeca-2(7),3,5,8,11,13(17)-hexaen-8-yl]-5-fluoro-pyridin-2-ol], in test [1], the Ki stood at 6.61 nM. Also, the inhibition constant (Ki) in test [1] (setting [3]) came out at 6.61 nM. For the same molecule, at h-GABA-A α2β2γ1 receptor, the “Efficacy (GABA) %” value is on record as 64% and the “Fold increase h-GABA-A α2β2γ1 oocyte @ 30-fold Ki” value was 1.64. In addition, in test [2], affinity was put at a Ki of 4190 nM, the “γ2/γ1 Selectivity Ratio” value is listed as 634.3 and the LogSel was 2.80.
Regarding `Cc1nnc2n1-c1ccc(Cl)c(Cl)c1C(c1c(F)ccc(O)c1F)=NC2` [Example 13, 3-(7,8-dichloro-1-methyl-4H-[1,2,4]triazolo[4,3-a][1,4]benzodiazepin-6-yl)-2,4-difluoro-phenol], in test [1], affinity was put at a Ki of 3.85 nM. For the same molecule, the Ki in test [1] (setting [3]) worked out at 3.85 nM. Also, on h-GABA-A α2β2γ1 receptor, the “Efficacy (GABA) %” value turned out to be 72% and the “Fold increase h-GABA-A α2β2γ1 oocyte @ 30-fold Ki” value came out at 1.72. For the same molecule, in test [2], the inhibition constant (Ki) was 72.6 nM, the “γ2/γ1 Selectivity Ratio” value is on record as 18.8 and the LogSel was 1.28.
In test [1], `Cc1nnc2n1-c1ccc(Cl)c(Cl)c1C(c1cc(O)ccc1F)=NC2` [Example 3, 3-(7,8-dichloro-1-methyl-4H-[1,2,4]triazolo[4,3-a][1,4]benzodiazepin-6-yl)-4-fluoro-phenol] registered an inhibitory constant (Ki) of 1.45 nM. Also, in test [1] (setting [3]), the Ki turned out to be 1.45 nM. In addition, at h-GABA-A α2β2γ1 receptor, the “Efficacy (GABA) %” value stood at 67% and the “Fold increase h-GABA-A α2β2γ1 oocyte @ 30-fold Ki” value is 1.67. Further, in test [2], the inhibitory constant (Ki) was 34.3 nM, the “γ2/γ1 Selectivity Ratio” value is reported as 23.7 and the LogSel was 1.37.
`Oc1ccc(F)c(C2=NCc3nncn3-c3ccc(C(F)(F)F)c(Cl)c32)c1` [Example 10, 3-[7-chloro-8-(trifluoromethyl)-4H-[1,2,4]triazolo[4,3-a][1,4]benzodiazepin-6-yl]-4-fluoro-phenol]: affinity in test [1] was put at a Ki of 1.04 nM. For the same molecule, the Ki in test [1] (setting [3]) stood at 1.04 nM. At h-GABA-A α2β2γ1 receptor, the “Efficacy (GABA) %” value is listed as 73% and the “Fold increase h-GABA-A α2β2γ1 oocyte @ 30-fold Ki” value is listed as 1.73. Also, in test [2], the Ki was determined as 89.9 nM, the “γ2/γ1 Selectivity Ratio” value turned out to be 86.5 and the LogSel came out at 1.94.
`Cc1nnc2n1-c1ccc(C(F)(F)F)c(Cl)c1C(c1cc(O)ccc1F)=N[C@H]2C` [Example 17, 4-fluoro-3-[(4S)-7-chloro-1,4-dimethyl-8-(trifluoromethyl)-4H-[1,2,4]triazolo[4,3-a][1,4]benzodiazepin-6-yl]phenol] yielded a Ki in test [1] of 1.75 nM. Besides, in test [1] (setting [3]), the Ki was 1.75 nM. Also, on h-GABA-A α2β2γ1 receptor, the “Efficacy (GABA) %” value turned out to be 77% and the “Fold increase h-GABA-A α2β2γ1 oocyte @ 30-fold Ki” value was determined as 1.77. Besides, in test [2], the inhibition constant Ki amounted to 68.8 nM, the “γ2/γ1 Selectivity Ratio” value is 39.3 and the LogSel was found to be 1.59.
Molecule `Cc1cnc2n1-c1ccc(C(F)(F)F)c(Cl)c1C(c1nc(O)ccc1Cl)=N[C@H]2C` [Example 26, 5-chloro-6-[(4S)-7-chloro-1,4-dimethyl-8-(trifluoromethyl)-4H-imidazo[1,2-a][1,4]benzodiazepin-6-yl]pyridin-2-ol] displayed an inhibition constant (Ki) in test [1] of 7.88 nM. In addition, the Ki in test [1] (setting [3]) was found to be 7.88 nM. For the same molecule, on h-GABA-A α2β2γ1 receptor, the “Efficacy (GABA) %” value worked out at 79% and the “Fold increase h-GABA-A α2β2γ1 oocyte @ 30-fold Ki” value was determined as 1.79. In test [2], the Ki stood at 6730 nM, the “γ2/γ1 Selectivity Ratio” value is 853.7 and the LogSel came to 2.93.
Take `Cc1nc2n(n1)-c1ccc(C(F)(F)F)c(Cl)c1C(c1nc(O)ccc1Cl)=N[C@H]2C` [Example 29, 5-chloro-6-[(4S)-7-chloro-2,4-dimethyl-8-(trifluoromethyl)-4H-[1,2,4]triazolo[1,5-a][1,4]benzodiazepin-6-yl]pyridin-2-ol]: affinity in test [1] was put at a Ki of 7.7 nM. Further, in test [1] (setting [3]), the Ki is 7.7 nM. On h-GABA-A α2β2γ1 receptor, the “Efficacy (GABA) %” value is 70% and the “Fold increase h-GABA-A α2β2γ1 oocyte @ 30-fold Ki” value is recorded as 1.70. In test [2], the affinity corresponds to a Ki of 12000 nM, the “γ2/γ1 Selectivity Ratio” value is reported as 1557.5 and the LogSel was 3.19.
`Cc1nnc2n1-c1ccc(C(F)(F)F)c(Cl)c1C(c1cc(O)ccc1F)=NC2` [Example 9, 3-[7-chloro-1-methyl-8-(trifluoromethyl)-4H-[1,2,4]triazolo[4,3-a][1,4]benzodiazepin-6-yl]-4-fluoro-phenol] showed a Ki in test [1] of 3.25 nM. In addition, the inhibition constant Ki in test [1] (setting [3]) stood at 3.25 nM. Besides, on h-GABA-A α2β2γ1 receptor, the “Efficacy (GABA) %” value stood at 69% and the “Fold increase h-GABA-A α2β2γ1 oocyte @ 30-fold Ki” value turned out to be 1.69. In test [2], the Ki came to 106 nM, the “γ2/γ1 Selectivity Ratio” value is 32.6 and the LogSel was found to be 1.51.
In test [1], `Cc1cnc2n1-c1ccc(C(F)(F)F)c(Cl)c1C(c1nc(O)ccc1F)=N[C@H]2C` [Example 23, 6-[(4S)-7-chloro-1,4-dimethyl-8-(trifluoromethyl)-4H-imidazo[1,2-a][1,4]benzodiazepin-6-yl]-5-fluoro-pyridin-2-ol] displayed a Ki of 8.88 nM. Moreover, the Ki in test [1] (setting [3]) was determined as 8.88 nM. At h-GABA-A α2β2γ1 receptor, the “Efficacy (GABA) %” value worked out at 68% and the “Fold increase h-GABA-A α2β2γ1 oocyte @ 30-fold Ki” value worked out at 1.68. Further, in test [2], the affinity, expressed as Ki, was 8010 nM; the “γ2/γ1 Selectivity Ratio” value is 902.4; the LogSel came out at 2.96.
